US20260191819A1, “COMPOSITION FOR THE TREATMENT OF THE HUMAN PAPILLOMAVIRUS INFECTION (HPV)” (LO.LI. PHARMA S.R.L., priority 2022, published 2026)

Columns and labels:
Hela cells = experiment: Annexin V/7-AAD staining, apoptosis in Hela cells; assay type: cell-based, human; settings: 48 hr, EGCG 50 mcg/ml, Fol 900 nM, B12 1000 nM, Hyal 10 mcg/ml, FIG. 1
Description: The combined action of epigallocatechin gallate (EGCG) and at least one the following other agents: folic acid, vitamin B12, hyaluronic acid, in respect to the single substance, has been tested in vitro in immortalized cervical cancer cell line (HeLa).
The cells were seeded in […] flasks in low glucose DMEM, to which had been added FBS (Fetal Bovine Serum) 10%, L-Glu (L-glutamine) 1%, Pen/Strep (penicillin/streptomycin) 1%. The cells were kept in an incubator at a temperature of 37° C., 5% carbon dioxide and 95% humidity and maintained in culture, as described above, until they reached 50% confluency. On the day of the experiment the cells were treated as follows: • 1. […]
Apoptosis (cell death) was evaluated after 48 hours of treatment using the Annexin V kit. The expression of onco-suppressor genes (p53 and/or pRB) and/or viral E6 and/or E7 genes was evaluated after 48 hours of treatment through use of real time PCR. […]
Hela cells were cultured at confluence into 25 cm^2 flasks (Falcon, Becton Dickinson Labware, Franklin Lakes, NJ, USA) in complete medium. […] After 48 hr of treatment, cell status was assessed through use of the FITC Annexin V Apoptosis Detection Kit I according to the instructions of the manufacturer (BD Pharmingen™). […]

human cervical lesions = settings: EGCG tablets (200 mg), 8-12 weeks, cited from earlier work
[1] = system: epithelial cervical cell line infected with high-risk HPV (TLC1 and cervical cancer lines such as Hela and Me180); settings: dose-dependent manner; cited from earlier work
p53 protein = settings: cited from earlier work
viral protein E7 = settings: cited from earlier work
cell model in vitro = settings: cited from earlier work
vaginal atrophy = settings: 12 post-menopausal women, 3-month treatment; cited from earlier work
[2] = cytology, colposcopy, histology, HPV DNA test

Substance | apoptosis (cell death) compared to control (Hela cells) | treated women with improvement of general clinical status (human cervical lesions; 88 women) [%] | women with moderate lesions responding positively to the treatment (human cervical lesions; [2]) [%] | women with serious lesions responding positively to the treatment (human cervical lesions; [2]) [%] | apoptosis, i.e., cell death [1] | cellular growth [1] | level of p53 protein expression (p53 protein) | level of viral protein E7 expression (viral protein E7) | process of wound healing in comparison with the control (cell model in vitro) | mucous membrane (vaginal atrophy) | symptoms related to vaginal atrophy (itching, burning, and dyspareunia) (vaginal atrophy)
(−)-epigallocatechin gallate [EGCG] | no differences in apoptosis levels | 60 | 100 | 71 | promotes apoptosis | inhibits cellular growth | increases the level of p53 protein expression | reduces that of the viral protein E7 | – | – | –
hyaluronic acid | significantly increased apoptosis | – | – | – | – | – | – | – | significantly accelerates the process of wound healing | restores the mucous membrane | dramatically reducing symptoms
